In patent publication US6518243B1, “Desleucyl glycopeptide antibiotics and methods of making same” (Trustees of Princeton University, priority 1999, dated 2003):

Legend:
Assay in all cases: Zone of inhibition screen, 96 well agar array format;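 for zone score, E. faecium ATCC 49624: score 3 means fourfold and score 4 sixteenfold the reference zone size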
Conditions in all cases: zone of inhibition relative to 1 mg/ml stock solution of p-chlorobiphenylvancomycin
S. aureus (ATCC 29213) = assay type: cell-based; parameters: scale not given here
Outline: (§1)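 Read-out is antibacterial activity on agar laid out as a 96-well array; every compound went through all strains of the panel.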

E. faceium (ATCC 49624) = assay type: cell-based, E. faecium
Experimental: The antibacterial activity of each of the compounds against the bacterial strains E. faceium (ATCC 49624), S. epidermidis (ATCC 12228), S. aureus (ATCC 29213), E. faecalis (CL 4877) and E. faecalis (ATCC 292121) was tested. Each of the compounds was screened in a 96 will agar array format.

E. faecalis (CL 4877) = assay type: cell-based; parameters: scale not given here
Outline: as §1

| SMILES | zone score, S. aureus ATCC 29213 (S. aureus (ATCC 29213)) | zone score, E. faecium ATCC 49624 (E. faceium (ATCC 49624)) | zone score, E. faecalis CL 4877 (E. faecalis (CL 4877)) |
| --- | --- | --- | --- |
| CC1OC(OC2C(Oc3c4cc5cc3Oc3ccc(cc3Cl)C(O)C3NC(=O)C(NC(=O)C5NC(=O)C(CC(N)=O)NC(=O)C(NC(=O)C(N)CCCC[N+](C)(C)C)C(O)c5ccc(c(Cl)c5)O4)c4ccc(O)c(c4)-c4c(O)cc(O)cc4C(C(=O)O)NC3=O)OC(CO)C(O)C2O)CC(C)(NCc2ccc(-c3ccc(Cl)cc3)cc2)C1O.[Cl-] (stereo not drawn) [Compound 80] | 2 | 2 |  |
| CSCC(N)C(=O)NC1C(=O)NC(CC(N)=O)C(=O)NC2C(=O)NC3C(=O)NC(C(=O)NC(C(=O)O)c4cc(O)cc(O)c4-c4cc3ccc4O)C(O)c3ccc(c(Cl)c3)Oc3cc2cc(c3OC2OC(CO)C(O)C(O)C2OC2CC(C)(NCc3ccc(-c4ccc(Cl)cc4)cc3)C(O)C(C)O2)Oc2ccc(cc2Cl)C1O (stereo not drawn) [Compound 50] |  | 2 | 2 |
| CC1OC(OC2C(Oc3c4cc5cc3Oc3ccc(cc3Cl)C(O)C3NC(=O)C(NC(=O)C5NC(=O)C(CC(N)=O)NC(=O)C(NC(=O)Cn5cccc(N)c5=O)C(O)c5ccc(c(Cl)c5)O4)c4ccc(O)c(c4)-c4c(O)cc(O)cc4C(C(=O)O)NC3=O)OC(CO)C(O)C2O)CC(C)(NCc2ccc(-c3ccc(Cl)cc3)cc2)C1O (stereo not drawn) [Compound 32] | 2 | 2 | 2 |
| CC1OC(OC2C(Oc3c4cc5cc3Oc3ccc(cc3Cl)C(O)C3NC(=O)C(NC(=O)C5NC(=O)C(CC(N)=O)NC(=O)C(NC(=O)CN5CCN(CCN)CC5)C(O)c5ccc(c(Cl)c5)O4)c4ccc(O)c(c4)-c4c(O)cc(O)cc4C(C(=O)O)NC3=O)OC(CO)C(O)C2O)CC(C)(NCc2ccc(-c3ccc(Cl)cc3)cc2)C1O (stereo not drawn) [Compound 33] | 2 | 2 | 2 |
| C[C@H]1O[C@H](O[C@H]2[C@H](Oc3c4cc5cc3Oc3ccc(cc3Cl)[C@@H](O)[C@@H](NC(=O)[C@@H](N)CCCNC(N)=O)C(=O)N[C@@H](CC(N)=O)C(=O)N[C@H]5C(=O)N[C@H]3C(=O)N[C@H](C(=O)N[C@@H](C(=O)O)c5cc(O)cc(O)c5-c5cc3ccc5O)[C@H](O)c3ccc(c(Cl)c3)O4)O[C@H](CO)[C@@H](O)[C@@H]2O)C[C@@](C)(NCc2ccc(-c3ccc(Cl)cc3)cc2)[C@H]1O [Compound 5] |  | 2 | 2 |
| CC1OC(OC2C(Oc3c4cc5cc3Oc3ccc(cc3Cl)C(O)C3NC(=O)C(NC(=O)C5NC(=O)C(CC(N)=O)NC(=O)C(NC(=O)C(N)Cc5cccs5)C(O)c5ccc(c(Cl)c5)O4)c4ccc(O)c(c4)-c4c(O)cc(O)cc4C(C(=O)O)NC3=O)OC(CO)C(O)C2O)CC(C)(NCc2ccc(-c3ccc(Cl)cc3)cc2)C1O (stereo not drawn) [Compound 10] | 2 | 2 |  |
| CC1OC(OC2C(Oc3c4cc5cc3Oc3ccc(cc3Cl)C(O)C3NC(=O)C(NC(=O)C5NC(=O)C(CC(N)=O)NC(=O)C(NC(=O)CCN)C(O)c5ccc(c(Cl)c5)O4)c4ccc(O)c(c4)-c4c(O)cc(O)cc4C(C(=O)O)NC3=O)OC(CO)C(O)C2O)CC(C)(NCc2ccc(-c3ccc(Cl)cc3)cc2)C1O (stereo not drawn) [Compound 47] |  | 2 | 2 |
| CC1OC(OC2C(Oc3c4cc5cc3Oc3ccc(cc3Cl)C(O)C3NC(=O)C(NC(=O)C5NC(=O)C(CC(N)=O)NC(=O)C(NC(=O)C(CC[S+](C)[O-])NC(=O)OC(C)(C)C)C(O)c5ccc(c(Cl)c5)O4)c4ccc(O)c(c4)-c4c(O)cc(O)cc4C(C(=O)O)NC3=O)OC(CO)C(O)C2O)CC(C)(NCc2ccc(-c3ccc(Cl)cc3)cc2)C1O (stereo not drawn) [Compound 142] | 2 | 2 | 2 |
| CC1OC(OC2C(Oc3c4cc5cc3Oc3ccc(cc3Cl)C(O)C3NC(=O)C(NC(=O)C5NC(=O)C(CC(N)=O)NC(=O)C(NC(=O)CC(O)C[N+](C)(C)C)C(O)c5ccc(c(Cl)c5)O4)c4ccc(O)c(c4)-c4c(O)cc(O)cc4C(C(=O)O)NC3=O)OC(CO)C(O)C2O)CC(C)(NCc2ccc(-c3ccc(Cl)cc3)cc2)C1O (stereo not drawn) [Compound 149] |  | 2 | 2 |
